Experimental data: patent US20190345443A1, “METHOD FOR THE CULTURING AND DIFFERENTIATION OF CELLS” (FRAUNHOFER-GESELLSCHAFT ZUR FORDERUNG DER ANGEWANDTEN …, priority 2018, published 2019)

Tested on: MDA-MB-231 breast cancer cells
Test: Overhead culture of MDA-MB-231 breast cancer cells with paclitaxel, relative cell count
Assay type: cell-based
Settings: 500 nM paclitaxel, 48 h overhead culture
Method: In the present experiment, MDA-MB-231 breast cancer cells were initially seeded on cell culture substrates according to the present invention, in particular nanoporous glass membranes with average pore diameters of 17 nm, 26 nm, 46 nm, 81 nm, and 124 nm, and on a smooth non-porous glass surface and cultured for 24 h in order to obtain homogeneous cell colonization on all substrates. Subsequently, the samples were inverted and divided into two groups: one control group and one test group, wherein the culturing took place in overhead culture for 48 h. In this context, the control group was cultured in normal culture medium and 500 nM paclitaxel was added to the culture medium of the test group. During culturing for 48 h in overhead culture, a reduction of the relative cell count on the substrates according to the invention by approximately 35-55% in the test group as compared to the control group was observed (FIG. 7).

Compound: CC(=O)O[C@H]1C(=O)[C@@]2(C)[C@H]([C@H](OC(=O)c3ccccc3)[C@]3(O)C[C@H](OC(=O)[C@H](O)[C@@H](NC(=O)c4ccccc4)c4ccccc4)C(C)=C1C3(C)C)[C@]1(OC(C)=O)CO[C@@H]1C[C@@H]2O [paclitaxel]
- reduction of the relative cell count in the test group as compared to the control group (on nanoporous glass membranes (17, 26, 46, 81, 124 nm)): 35-55%
- reduction of the relative cell count in the test group as compared to the control group (on smooth non-porous glass surface): approximately 5%
